Results published in US20240245673A1, “Papain-like protease (PLpro) inhibitors” (Pfizer Inc., priority 2022, published 2024).
Where two headings read alike, the source gives them in different places.

Target: SARS-CoV-2 Papain like protease (PLpro) (Severe acute respiratory syndrome coronavirus 2 (2019-nCoV) (SARS-CoV-2), UniProt P0DTD1)
Test: Papain Like Protease (PLpro) biochemical assay with profluorogenic substrate Z-RLRGG-AMC
Conditions: SARS-CoV-2 PLpro 6.25 nM, 25 μM Z-RLRGG-AMC substrate, 60 minute reaction

Compound	IC50 (read-out: IC50) [µM]	IC50 (IC50 (μM)) [µM]
Cc1ccccc1C(=O)N[C@H](C)c1cc(-c2cnn(C)c2)nc2ccccc12 [Example 49, (R)-2-methyl-N-(1-(2-(1-methyl-1H-pyrazol-4-yl)quinolin-4-yl)ethyl)benzamide]	0.151	
Cc1ccccc1C(=O)N[C@H](C)c1cc(-c2ccnn2C)nc2ccccc12 [Example 50, (R)-2-methyl-N-(1-(2-(1-methyl-1H-pyrazol-5-yl)quinolin-4-yl)ethyl)benzamide]	0.489	
Cc1ccc(NC(=O)[C@H]2CCCCN2)cc1C(=O)NC(C)c1cc(-c2cn[nH]c2)cc2ccccc12 (stereo partly drawn) [Example 51, (2R)—N-(3-((1-(3-(1H-pyrazol-4-yl)naphthalen-1-yl)ethyl)carbamoyl)-4-methylphenyl)piperidine-2-carboxamide]	0.019	
Cc1cc(CNC(=O)c2cscn2)ccc1C(=O)NC(C)c1cc(-c2cnn(C)c2)cc2ccccc12 (stereo not shown) [Example 54, N-(3-methyl-4-((1-(3-(1-methyl-1H-pyrazol-4-yl)naphthalen-1-yl)ethyl)carbamoyl)benzyl)thiazole-4-carboxamide]	0.028	
Cc1ccc(N2CCNCC2)cc1C(=O)N[C@H](C)c1cc(-c2cnn(C)c2)nc2ccccc12 [Example 55, (R)-2-methyl-N-(1-(2-(1-methyl-1H-pyrazol-4-yl)quinolin-4-yl)ethyl)-5-(piperazin-1-yl)benzamide]	0.018	
Cc1ccc(CN)cc1C(=O)N[C@H](C)c1cc(-c2cc(C(=O)N(C)C)c[nH]2)nc2ccccc12 [Example 56, 5-{4-[(1R)-1-{[5-(aminomethyl)-2-methylphenyl]formamido}ethyl]quinolin-2-yl}-N,N-dimethyl-1H-pyrrole-3-carboxamide]	0.02	
CNCc1ccc(C)c(C(=O)N[C@H](C)c2cc(-c3cc(C(=O)OC)c[nH]3)nc3ccccc23)c1 [Example 57, methyl (R)-5-(4-(1-(2-methyl-5-((methylamino)methyl)benzamido)ethyl)quinolin-2-yl)-1H-pyrrole-3-carboxylate]	0.013	
Cc1ccccc1C(=O)N[C@H](C)c1cc(-c2cnoc2)nc2ccccc12 [Example 58, (R)-N-(1-(2-(isoxazol-4-yl)quinolin-4-yl)ethyl)-2-methylbenzamide]	100	
Cc1ccc(N2CCNCC2)cc1C(=O)NC(C)c1cc(-c2cnn(C)c2)cc2ccccc12 (stereo not shown) [Example 59, 2-methyl-N-(1-(3-(1-methyl-1H-pyrazol-4-yl)naphthalen-1-yl)ethyl)-5-(piperazin-1-yl)benzamide]	0.025	
Cc1ccc(CNS(C)(=O)=O)cc1C(=O)N[C@H](C)c1cc(-c2cnn(C)c2)nc2ccccc12 [Example 61]	0.046	
Cc1cc(CNC(=O)c2ncc[nH]2)ccc1C(=O)NC(C)c1cc(-c2cnn(C)c2)cc2ccccc12 (stereo not shown) [Example 62, N-(3-methyl-4-((1-(3-(1-methyl-1H-pyrazol-4-yl)naphthalen-1-yl)ethyl)carbamoyl)benzyl)-1H-imidazole-2-carboxamide]	0.039	
COC(=O)/C=C/C(=O)NNC(=O)CCc1ccccc1C(=O)N[C@H](C)c1cc(-c2cnn(C)c2)nc2ccccc12 [Example 63, methyl(R,E)-4-(2-(3-(2-((1-(2-(1-methyl-1H-pyrazol-4-yl)quinolin-4-yl)ethyl)carbamoyl)phenyl)propanoyl)hydrazineyl)-4-oxobut-2-enoate]	0.003	
COC(=O)/C=C/C(=O)NNC(=O)CCc1ccccc1C(=O)NC(C)c1cc(-c2cnn(C)c2)cc2ccccc12 (stereo not shown) [Example 64, methyl (E)-4-(2-(3-(2-((1-(3-(1-methyl-1H-pyrazol-4-yl)naphthalen-1-yl)ethyl)carbamoyl)phenyl)propanoyl)hydrazineyl)-4-oxobut-2-enoate]	0.005	
COC(=O)c1c[nH]c(-c2cc(C(C)NC(=O)c3cc(CN)ccc3C)c3ccccc3c2)c1 (stereo not shown) [Example 70, methyl 5-(4-(1-(5-(aminomethyl)-2-methylbenzamido)ethyl)naphthalen-2-yl)-1H-pyrrole-3-carboxylate]	0.011	
CNC(=O)c1c[nH]c(-c2cc(C(C)NC(=O)c3cc(CN)ccc3C)c3ccccc3c2)c1 (stereo not shown) [Example 71, 5-(4-(1-(5-(aminomethyl)-2-methylbenzamido)ethyl)naphthalen-2-yl)-N-methyl-1H-pyrrole-3-carboxamide]	0.016	
Cc1ccc(CN)cc1C(=O)NC(C)c1cc(-c2cc(C(=O)N(C)C)c[nH]2)cc2ccccc12 (stereo not shown) [Example 72, 5-(4-(1-(5-(aminomethyl)-2-methylbenzamido)ethyl)naphthalen-2-yl)-N,N-dimethyl-1H-pyrrole-3-carboxamide]	0.013	
Cc1ccc(N2CCN(C)CC2)cc1C(=O)NC(C)c1cc(-c2cnn(C)c2)cc2ccccc12 (stereo not shown) [Example 73, 2-methyl-N-(1-(3-(1-methyl-1H-pyrazol-4-yl)naphthalen-1-yl)ethyl)-5-(4-methylpiperazin-1-yl)benzamide]	0.022	
Cc1cc(CNCc2cscn2)ccc1C(=O)N[C@H](C)c1cc(-c2cnn(C)c2)nc2ccccc12 [Example 74, (R)-2-methyl-N-(1-(2-(1-methyl-1H-pyrazol-4-yl)quinolin-4-yl)ethyl)-4-(((thiazol-4-ylmethyl)amino)methyl)benzamide]	0.008	
Cc1ccc(CN)cc1C(=O)NC1(c2cc(-c3cnn(C)c3)cc3ccccc23)CC1 [Example 75, 5-(aminomethyl)-2-methyl-N-(1-(3-(1-methyl-1H-pyrazol-4-yl)naphthalen-1-yl)cyclopropyl)benzamide]	0.012	
Cc1ccccc1C(=O)NC(C)c1cc(-c2cn[nH]c2)nc2ccccc12 (stereo not shown) [Example 101, 2-methyl-N-{1-[2-(1H-pyrazol-4-yl)quinolin-4-yl]ethyl}benzamide]	0.198	
Cc1ccccc1C(=O)NC(C)c1cc(-c2[nH]ncc2C)nc2ccccc12 (stereo not shown) [Example 102]	0.904	
Cc1ccccc1C(=O)NC(C)c1cc(-c2csc(C#N)c2)nc2ccccc12 (stereo not shown) [Example 103, N-{1-[2-(5-cyanothiophen-3-yl)quinolin-4-yl]ethyl}-2-methylbenzamide]	0.616	
Cc1ccccc1C(=O)NC(C)c1cc(-c2scc3c2OCCO3)nc2ccccc12 (stereo not shown) [Example 104, N-{1-[2-(2,3-dihydrothieno [3,4-b][1,4]dioxin-5-yl)quinolin-4-yl]ethyl}-2-methylbenzamide]	10	
Cc1ccccc1C(=O)NC(C)c1cc(-c2cnn(C(F)F)c2)nc2ccccc12 (stereo not shown) [Example 105, N-(1-{2-[1-(difluoromethyl)-1H-pyrazol-4-yl]quinolin-4-yl}ethyl)-2-methylbenzamide]		0.266
COCc1cc(-c2cc(C(C)NC(=O)c3ccccc3C)c3ccccc3n2)cs1 (stereo not shown) [Example 106, N-(1-{2-[5-(methoxymethyl)thiophen-3-yl]quinolin-4-yl}ethyl)-2-methylbenzamide]	0.241	
Cc1ccccc1C(=O)NC(C)c1cc(-c2cc(C3CC3)nn2C)nc2ccccc12 (stereo not shown) [Example 107, N-{1-[2-(3-cyclopropyl-1-methyl-1H-pyrazol-5-yl)quinolin-4-yl]ethyl}-2-methylbenzamide]	0.757	
Cc1ccccc1C(=O)NC(C)c1cc(-c2c(C#N)cnn2C)nc2ccccc12 (stereo not shown) [Example 108, N-{1-[2-(4-cyano-1-methyl-1H-pyrazol-5-yl)quinolin-4-yl]ethyl}-2-methylbenzamide]	0.931	
COc1cc(-c2cc(C(C)NC(=O)c3ccccc3C)c3ccccc3n2)ccn1 (stereo not shown) [Example 109]	0.28	
